# Measured values: ChEMBL document CHEMBL2095176, “GSK Tuberculosis Screening Data”
# Test system: Mycobacterium tuberculosis variant bovis BCG
# Assay: microbe, parasite or virus in culture
# Format: functional
row,SMILES,MIC90
1,CCCCN1CCC(Cc2noc(-c3cc(Cl)c(N)c4c3OCCO4)n2)C1 (stereo not drawn),6.9 µM
2,Cc1nc2ccccc2n1CC(O)COc1ccc(NC(=O)c2ccccc2)cc1 (stereo not drawn),3.9 µM
3,Cc1ccc2c(NC(=O)Nc3ccc(N(C)C)cc3)cc(C)nc2c1,5.8 µM
4,Cc1cc(C)n(-c2nc3ccccc3c(=O)[nH]2)n1,3.3 µM
5,CC(=O)CCN1C(=O)C(=O)c2cc(Br)ccc21,7.9 µM
6,O=C(c1cnn(C(=O)c2ccco2)c1)c1ccccc1O,2.5 µM
7,c1cc(CN2CCC3(CC2)OCCc2sccc23)nc(-c2ccc3c(c2)OCO3)c1,2.3 µM
8,O=C(CNc1ccccc1Nc1ccccc1)N1CCCC1,8.2 µM
9,Cc1ccc(Nc2ccc(C(=O)O)cc2N)cc1,7.9 µM
10,O=C(CSc1ccc(Cl)cc1)NNC(=O)c1cccs1,4.8 µM
11,Cc1ccc2nc(C(F)(F)F)c(C(=O)NCc3ccc(C)o3)n2c1,4.4 µM
12,O=C(NC1CCCCC1)c1cc2cc(OC(F)(F)F)ccc2[nH]1,6.4 µM
13,O=C(NCCNCc1cc(-c2cncc3ccccc23)cs1)c1ccc(Cl)cc1,8.4 µM
14,Cc1ccc(C)c(-c2nnc(NC(=O)c3cccc(C(F)(F)F)c3)o2)c1,4.1 µM
15,O=C(NCc1ccc2c(c1)OCO2)c1c(C(F)(F)F)nc2ccccn12,3.4 µM
16,Cc1cc(C(=O)Nc2nc(-c3ccccn3)nc3ccsc23)no1,2.8 µM
17,Cc1ccccc1CN1CCc2nc(N3CCN(c4ncccn4)CC3)ncc2C1,4 µM
18,O=C(Nc1cccc(Cl)c1)NC12CC3CC(CC(C3)C1)C2,6.3 µM
19,Clc1ccc(CCNc2cc(-c3ccccc3)nc3ncnn23)cc1,4 µM
20,COc1cc(Cc2cnc(N)nc2N)c2cnccc2c1N(C)C,6.4 µM
21,Cc1cc(CN2CCCN(c3ncc(-c4ccsc4)c4nc(C(F)(F)F)ccc34)CC2)no1,9.8 µM
22,O=c1c2sc(-c3ccc(Cl)cc3)cc2ncn1-c1ccc(OCCN2CC[C@@H](F)C2)cc1,6.7 µM
23,O=C(NNC(=O)c1ccc([N+](=O)[O-])o1)c1ccc2ccccc2c1,7.2 µM

row,SMILES,MIC90
1,Brc1cncc(-c2cc(NCCCn3ccnc3)nc(-c3ccccc3)n2)c1,7.6 µM
2,Oc1ccc(Nc2ccccc2Nc2ccccc2)cc1Cl,7.7 µM
3,COc1cc(CN2CCCC(c3cc(C(F)(F)F)n4nc(C)cc4n3)C2)ccc1O (stereo not drawn),6 µM
4,Oc1ccc(CCNc2nc(NCc3cccc4ccccc34)nc(NC3CCNCC3)n2)cc1,10 µM
5,c1ccc(-c2nc(NC3CCCCC3)cc(C3CC3)n2)nc1,3.7 µM
6,Cc1ccc2nc(C(F)(F)F)c(C(=O)NCc3ccc4c(c3)OCO4)n2c1,1.8 µM
7,Cc1nc2ccccn2c1C(=O)NCc1cccs1,3.9 µM
8,O=C(Nc1nc(-c2cccnc2)cs1)c1ccc(Br)s1,1.4 µM
9,COc1ccc(OC)c(S(=O)(=O)Nc2ccc(Nc3ccccc3)cc2OC)c1,8.8 µM
10,Cc1cc(CN2CCC3(CC2)OCCc2sccc23)oc1C,2.1 µM
11,COc1ccc(CN(C)S(=O)(=O)c2ccc(OC)c(-c3nc(C(C)C)no3)c2)cc1,7.3 µM
12,COc1ccc2c(ccn2C(=O)OCCC2CCNCC2)c1,4.4 µM
13,O=C(c1cnn(C(=O)c2ccco2)c1)c1cc(F)ccc1O,4.2 µM
14,Cc1cc(C)c2cc(CN(Cc3cccnc3)C(=O)c3ccccc3F)c(Cl)nc2c1,1.7 µM
15,CCOc1cc(OC)c(C(=O)Nc2cccc3c2CCN(C)C3C)cc1Cl (stereo not drawn),5.6 µM
16,O=C(NNC(=O)c1cccs1)c1cnn(-c2ccccc2)n1,4.5 µM
17,CN1CCCN(c2ncnc3sc(-c4ccccc4)cc23)CC1,7.4 µM
18,CCOc1ncccc1C(=O)Nc1ccccc1Nc1ccccc1,6.4 µM
19,O=C(NCc1ccccc1F)N1CCN(Cc2ccc(Br)s2)CC1,9.4 µM
20,Cc1cc(C)c2nc(N3CCN(C)CC3)cc(C)c2c1,8.9 µM
21,COc1ccc(-c2ccc(Nc3cccc(S(=O)(=O)CCNCC4CC4)c3)nc2)cn1,5.6 µM
22,CCCCNC(=O)N1CCN(Cc2cccc3ccccc23)CC1,8.8 µM
23,CCOc1ccc(-c2nc(CNCCc3ccc(F)cc3)cs2)cc1.O=C(O)C(=O)O,9.9 µM

row,SMILES,MIC90
1,CC(=CC(=O)NC12CC3CC(CC(C3)C1)C2)c1cccc(Cl)c1,7.8 µM
2,Cc1cc(C)n(-c2nc(O)cc(-c3ccccc3)n2)n1,2 µM
3,COc1ccc(Nc2ccccc2N)cc1,1.1 µM
4,Cc1cc(C(=O)Nc2nc3c(C)cccc3s2)c2c(C)nn(C(C)C)c2n1,2.5 µM
5,c1ncn(-c2ccc(COc3ccc(-n4cncn4)cc3)cc2)n1,6.8 µM
6,O=C(NC12CC3CC(CC(C3)C1)C2)c1cc2cc(Cl)ccc2[nH]1,0.8 µM
7,COc1ccc(CNC(=O)c2cnn3c2NC(c2ccc(OC)cc2)CC3C(F)(F)F)cc1 (stereo not drawn),9.1 µM
8,Fc1cccc2sc(Nc3nc(-c4ccccn4)cs3)nc12,2.3 µM
9,COC(=O)COc1ccc(CCn2nnc(-c3ccc(C(F)(F)F)cc3)n2)cc1,7.6 µM
10,O=C(COc1ccc(Br)cc1Cl)Nc1nc(-c2ccccn2)cs1,4.6 µM
11,O=C(c1[nH]nc2c1CCCC2)N1CCN(Cc2ccc3c(c2)OCO3)CC1,3.9 µM
12,CCn1c(NC(=O)Cc2ccc(Cl)cc2)nc2ccccc21,9.8 µM
13,FC(F)(F)c1ccc2c(N3CCCNCC3)ncc(-c3ccsc3)c2n1,1.8 µM
14,FC(F)(F)c1ccc2c(N3CCCNCC3)ncc(-c3ccccc3)c2n1,4.8 µM
15,Cc1ccccc1CN1CCC(O)(c2ccc(Cl)c(C(F)(F)F)c2)CC1,4.3 µM
16,O=C(C=Cc1ccco1)N1CCN(Cc2ccc3c(c2)OCO3)CC1,7 µM
17,Cc1ccc2c(c1)c(=O)cc(C(F)(F)F)n2CCNC(=O)c1ccccc1F,9.4 µM
18,O=C(NC(=Cc1ccc(-c2cccc(C(F)(F)F)c2)o1)C(=O)N1CCOCC1)c1ccccc1,6.8 µM
19,CCOC(=O)c1cc(-c2csc(Nc3c(C)cc(C)cc3C)n2)on1,7.7 µM
20,CSc1ccc(-c2nnc(NC(=O)c3ccc(Cl)s3)o2)cc1,6.5 µM
21,O=C(NNC(=O)c1cc2cc([N+](=O)[O-])ccc2s1)c1cccs1,9.2 µM
22,CCSc1ccc(C(=O)Nc2nc(-c3ccccn3)cs2)cc1,2.3 µM
23,Cc1ccc(-c2nnc(NC(=O)c3ccc(C#N)cc3)o2)cc1C,3.7 µM

row,SMILES,MIC90
1,Cc1cc(CN2CC[C@H](NC(=O)c3ccc(Cl)c(Cl)c3)C2)ccc1OCCN1CCNCC1,7.1 µM
2,C=CCNCCS(=O)(=O)c1cccc(Nc2ncc(-c3ccc(OC)nc3)cn2)c1,3.6 µM
3,O=C(Nc1ccc(OC(F)(F)F)cc1)NC1CCCCC1,4.8 µM
4,COc1cc(C(C)(C)C)ccc1C(=O)Nc1cccc2c1CCC2N (stereo not drawn),2.7 µM
5,Cc1ccc(NC(=O)c2nc(N3CCCN(C)CC3)ccc2Cl)cc1F,8.8 µM
6,Cc1ccc(-n2nc(C)c3c(N4CCCNCC4)nc(C4CC4)nc32)cc1,0.8 µM
7,CCOc1ccc(NC(=O)N(C2CCCCC2)C(C)c2cccnc2)cc1 (stereo not drawn),7.2 µM
8,COc1ccc(-c2nsc(SCC(=O)N3CCCC3)n2)cc1,5.6 µM
9,COc1ccc(-c2nc(C(=O)N3CCCCC3c3nc4ccccc4s3)cs2)cc1 (stereo not drawn),4.8 µM
10,CCOc1ccc(-c2nc(NC(=O)C3CCCN3S(=O)(=O)c3cccs3)sc2C)cc1 (stereo not drawn),2 µM
11,O=C(Nc1ccc(Oc2ccccc2)cc1)NC1CCCCC1,3.9 µM
12,Cc1cc(/C=C/c2cccc(C(=O)O)c2)cc(Cl)c1OC[C@@H]1CCCN1C,9.5 µM
13,O=C(c1ccccc1)N1CCN(c2ccccc2NC(=O)C(Cl)(Cl)Cl)CC1,1 µM
14,COc1cc(OC)c(C(=O)Nc2cccc3c2CCN(C)C3C)cc1Br (stereo not drawn),5.5 µM
15,O=C(Nc1ccc2c(c1)OCC(=O)N2Cc1ccccc1Cl)NC1CCCCC1,5.7 µM
16,O=C(O)COCC(=O)NNC(=O)c1ccncc1,2.3 µM
17,c1ccc(-c2csc(CN3CCC4(CC3)OCCc3sccc34)c2)cc1,2.7 µM
18,O=C(Nc1ccc(-c2nc3ccccc3o2)cc1)c1cccnc1,4.5 µM
19,Cc1ccc(C2CC(C(F)(F)F)n3ncc(C(=O)NCc4ccc5c(c4)OCO5)c3N2)cc1 (stereo not drawn),1.9 µM
20,CCN(CC)CCCn1c(Cc2ccccc2)nnc1Sc1ccnc(N2CCN(c3ccncc3)CC2)n1,2.9 µM
21,O=C(Nc1cccc(C(=O)N2CCCCC2c2nc3ccccc3s2)c1)c1cccs1 (stereo not drawn),0.1 µM
22,C=CCn1c(Sc2ccnc(N3CCN(c4ccncc4)CC3)n2)nnc1C(N)=O,3.3 µM
23,CN(C)c1ccc(NC(=O)Nc2ccccc2C(F)(F)F)cc1,6.4 µM

row,SMILES,MIC90
1,Cc1cc(C(=O)Nc2nc(C)c(C)s2)c2c(C)nn(C(C)C)c2n1,5.5 µM
2,Cc1ccc2nc(Cl)c(CNCc3cccs3)cc2c1,7.2 µM
3,NC(=O)c1cnc2ccc(S(=O)(=O)c3ccccc3)cc2c1Nc1ccc(O)c(F)c1,7.5 µM
4,O=S(=O)(NCC1CCCO1)c1ccc(-c2ccc(CN3CCOCC3)cc2)s1 (stereo not drawn),4.1 µM
5,COc1ccc(-c2nc(NC(=O)C3CCCN3S(=O)(=O)c3cccs3)sc2C)cc1 (stereo not drawn),6.9 µM
6,CN1CCC(COC(=O)c2cn(C)c3ccc(Cl)cc23)CC1,8.7 µM
7,O=C(NNC(=O)N1CCN(C(c2ccccc2)c2ccc(Cl)cc2)CC1)c1ccc([N+](=O)[O-])o1 (stereo not drawn),1.1 µM
8,CC(=O)c1cccc(NC(=O)N(CCc2cccnc2)Cc2csc(-c3ccc(CNCc4ccccc4)cc3)n2)c1,2.6 µM
9,COc1ccc(-c2cc(C(=O)NC3CCCCNC3=O)n3nc(C(C)(C)C)cc3n2)cc1 (stereo not drawn),3.7 µM
10,CCOc1ccc(C=C(C(=O)NCc2ccc(F)cc2)c2nc3ccccc3[nH]2)cc1,6.1 µM
11,CC(C)Oc1ccc(C(=O)Nc2nc(-c3ccccn3)cs2)cc1,4.1 µM
12,Clc1ccc(Nc2nc(-c3ccccn3)cs2)nc1,1.2 µM
13,COc1ccc(-c2ccc(Nc3cccc(S(=O)(=O)CCNCCc4cccs4)c3)nc2)cn1,7.2 µM
14,NC(=O)c1cccc(-c2ccc(OCCCN3CC[C@@H](OCc4ccccc4)C3)cc2)c1,7.5 µM
15,N#Cc1ccc2c(c1)CCN(CCCSc1ccnc3cc(C(F)(F)F)ccc13)CC2,3.2 µM
16,Cn1c(CNCCc2nc(C(=O)N3Cc4ccccc4C3)cs2)nc2ccccc21,8.1 µM
17,CC(C)c1ccc(C(=O)Nc2ccc3c(c2)CN(C)CC3)cc1C(F)(F)F,6.8 µM
18,Nc1cc(-c2ccc(Cl)cc2)nn1-c1cccc(C(=O)NCC2CC(=O)N(c3ccccc3)C2)c1 (stereo not drawn),5.9 µM
19,COc1ccccc1NC(=O)CN(Cc1ccco1)C(=O)c1cccc(NC(=O)c2cccs2)c1,0.4 µM
20,N#Cc1nc(-c2ccc(F)cc2)oc1S(=O)(=O)c1ccc(Br)cc1,1.8 µM
21,Cn1c(=O)c2c([S+](C)[O-])snc2n(C)c1=O (stereo not drawn),5.6 µM
